# In US20030220524A1, “Sulfur containing compounds” (priority 2000, published 2003):
# Assays:
# Assay type in all cases: cell-based
# Aspergillus niger = assay: Antifungal paper disk test, diameter of clear zone; conditions: for zone of inhibition at 100 µg/disc: read-out: Diameter (mm) of clear Zone A. niger
# Protocol: (§1) Sulfur compounds were tested for antifungal activity against pure cultures of Aspergillus niger and Aspergillus flavus supplied by Ward's Natural Science Ltd (St. Catharines, Ontario, Canada). They were maintained on Sabouraud Dextrose Agar.
# (§2) For the test, 6 agar plugs (5 mm diameter) were cut from a 5-8 day old colony and homogenized in distilled, sterilized water (2 ml). A portion of this suspension (0.5 ml) was transferred aseptically to a Petri plate with Sabouraud Dextrose Agar (15 ml) and spread evenly over the entire surface. […] Each test compound was applied to the disks as a solution (50 mg compound/10 ml acetone). Control disks were treated with neat acetone (20 μl). Test plates with fungal homogenates and disks were incubated at 18-20° C. for 2 days. For each test four replicate plates were used. The diameter of the clear zone surrounding the disk was taken as the indicator of antifungal activity.
# Aspergillus flavus = assay: Antifungal paper disk test, diameter of clear zone; conditions: for zone of inhibition at 100 µg/disc: read-out: Diameter (mm) of clear Zone A. flavus
# Protocol: as §1, §2
# [1] = tested on: Aspergillus niger and Aspergillus flavus; assay: Antifungal activity; conditions: in words; for Antifungal activity: dose not given
# Protocol: as §1
# For the test, 6 agar plugs (5 mm diameter) were cut from a 5-8 day old colony and homogenized in distilled, sterilized water (2 ml). A portion of this suspension (0.5 ml) was transferred aseptically to a Petri plate with Sabouraud Dextrose Agar (15 ml) and spread evenly over the entire surface. Each plate was supplied with four evenly spaced paper disks (7 mm, Whatman Number 1 filter paper) containing the test compound (0, 25, 50 and 100 μg respectively). Each test compound was applied to the disks as a solution (50 mg compound/10 ml acetone). Control disks were treated with neat acetone (20 μl). Test plates with fungal homogenates and disks were incubated at 18-20° C. for 2 days. For each test four replicate plates were used. The diameter of the clear zone surrounding the disk was taken as the indicator of antifungal activity.
# [2] = Aspergillus niger, 25 μg/disk, acetone
# [3] = Aspergillus flavus, 25 μg/disk, acetone
# [4] = Aspergillus niger, 100 μg/disk, acetone
# [5] = Aspergillus flavus, 100 μg/disk, acetone
# [6] = 0.25 μg/disk, Appl'n Solvent Acetone
molecule,measurement,setting,value
"CS(=O)(=O)c1ccccc1SSc1ccccc1S(C)(=O)=O [[o-CH3SO2(C6H4)S]2, o-methylsulfonylphenyl disulphide]",zone of inhibition at 25 µg/disc,Aspergillus niger; [2],3.3 mm
same,zone of inhibition at 25 µg/disc,Aspergillus flavus; [3],3 mm
"CSSCS(C)(=O)=O [CH3SO2CH2SSCH3, α-methylsulfonyl dimethyl disulphide]",Diameter (mm) of clear Zone A. niger,"Aspergillus niger; 25 μg/disk, acetone",2.7 mm
same,Diameter (mm) of clear Zone A. flavus,"Aspergillus flavus; 25 μg/disk, acetone",3.8 mm
"CS(=O)(=O)Oc1ccc([N+](=O)[O-])cc1 [p-O2N(C6H4)OSO2CH3, p-nitrophenyl methanesulfonate]",zone of inhibition at 100 µg/disc,Aspergillus niger; [4],0 mm
same,zone of inhibition at 100 µg/disc,Aspergillus flavus; [5],0 mm
"CSSCS(=O)(=O)c1ccccc1 [C6H5SO2CH2SSCH3, α-phenylsulfonyl dimethyl disulphide]",Diameter (mm) of clear Zone A. niger,"Aspergillus niger; 25 μg/disk, acetone",5.5 mm
same,Diameter (mm) of clear Zone A. flavus,"Aspergillus flavus; 25 μg/disk, acetone",4.2 mm
"Cc1ccc(S(=O)(=O)Sc2ccc([N+](=O)[O-])cc2)cc1 [p-CH3(C6H4)SO2S(C6H4)NO2—p, p-Nitrophenyl p-Toluenethiosulfonate]",Diameter (mm) of clear Zone A. niger,"Aspergillus niger; 25 μg/disk, acetone",3.0 mm
same,Diameter (mm) of clear Zone A. flavus,"Aspergillus flavus; 25 μg/disk, acetone",2.0 mm
"CSSc1ccccc1 [Compound C6H5SSCH3, phenyl methyl disulphide]",Antifungal activity / fungitoxicity,[1]; 100 μg/disk,no observable fungitoxicity
same,zone of inhibition at 100 µg/disc,Aspergillus niger; [4],0 mm
same,zone of inhibition at 100 µg/disc,Aspergillus flavus; [5],0 mm
"CSSCCOC(C)=O [CH3SSCH2CH2OC(O)CH3, 3,4-dithiapentyl acetate]",zone of inhibition at 100 µg/disc,Aspergillus niger; [4],0 mm
same,zone of inhibition at 100 µg/disc,Aspergillus flavus; [5],0 mm
Cc1ccc(S(=O)(=O)Sc2ccccc2)cc1 [p-CH3(C6H4)SO2S(C6H5)],Diameter (mm) of clear Zone A. niger,"Aspergillus niger; 25 μg/disk, acetone",4.3 mm
same,Diameter (mm) of clear Zone A. flavus,"Aspergillus flavus; 25 μg/disk, acetone",3.3 mm
"Cc1ccc(S(=O)(=O)CS)cc1 [p-CH3(C6H4)SO2CH2SH, α-p-toluenesulfonyl methyl mercaptan]",Diameter (mm) of clear Zone A. niger,"Aspergillus niger; 100 μg/disk, acetone",0 mm
same,Diameter (mm) of clear Zone A. flavus,"Aspergillus flavus; 100 μg/disk, acetone",0 mm
"CS(=O)(=O)c1ccc(SSc2ccc(S(C)(=O)=O)cc2)cc1 [[p-CH3SO2(C6H4)S]2, p-methylsulfonylphenyl disulphide]",zone of inhibition at 25 µg/disc,Aspergillus niger; [2],4 mm
same,zone of inhibition at 25 µg/disc,Aspergillus flavus; [3],6.9 mm
"CCS(=O)(=O)SC [CH3CH2SO2SCH3, Methyl Ethanethiosulfonate]",Diameter (mm) of clear Zone A. niger,"Aspergillus niger; 50 μg/disk, acetone",2.0 mm
same,Diameter (mm) of clear Zone A. flavus,"Aspergillus flavus; 50 μg/disk, acetone",1.3 mm
"CSSc1cccc([N+](=O)[O-])c1 [m-O2N(C6H4)SSCH3, methyl m-nitrophenyl disulphide]",zone of inhibition at 10 µg/disc,"Aspergillus niger; Aspergillus niger, 10 μg/disk, acetone",1.7 mm
same,zone of inhibition at 10 µg/disc,"Aspergillus flavus; Aspergillus flavus, 10 μg/disk, acetone",1.8 mm
"CSCS(C)(=O)=O [CH3SO2CH2SCH3, 2,4-dithiapentane 2,2-dioxide]",zone of inhibition at 100 µg/disc,Aspergillus niger; [4],0 mm
same,zone of inhibition at 100 µg/disc,Aspergillus flavus; [5],0 mm
"CSSCOC(=O)c1ccccc1 [CH3SSCH2OC(O)Ph, 2,3-dithiabutyl benzoate]",zone of inhibition at 25 µg/disc,Aspergillus niger; [2],6.1 mm
same,zone of inhibition at 25 µg/disc,Aspergillus flavus; [3],8.4 mm
"CSCSSCSC [(CH3SCH2S)2, reference compound]",Diameter (mm) of clear Zone A. niger,"Aspergillus niger; 100 μg/disk, acetone",2.5 mm
same,Diameter (mm) of clear Zone A. flavus,"Aspergillus flavus; 100 μg/disk, acetone",2.3 mm
"CSSC [CH3SSCH3, dimethyl disulphide]",Antifungal activity,[1],no antifungal behaviour
same,Diameter (mm) of clear Zone A. niger,"Aspergillus niger; 100 μg/disk, acetone",0 mm
same,Diameter (mm) of clear Zone A. flavus,"Aspergillus flavus; 100 μg/disk, acetone",0 mm
"CCSSCS(C)(=O)=O [CH3SO2CH2SSCH2CH3, 2,4,5-trithiaheptane 2,2,-dioxide]",Diameter (mm) of clear Zone A. niger,"Aspergillus niger; 25 μg/disk, acetone",4.8 mm
same,Diameter (mm) of clear Zone A. flavus,"Aspergillus flavus; 25 μg/disk, acetone",3.3 mm
"COC(=O)CSS(=O)(=O)c1ccc(C)cc1 [p-CH3(C6H4)SO2SCH2CO2CH3, Carbomethoxymethyl p-Toluenethiosulfonate]",Diameter (mm) of clear Zone A. niger,"Aspergillus niger; 50 μg/disk, acetone",2.9 mm
same,Diameter (mm) of clear Zone A. flavus,"Aspergillus flavus; 50 μg/disk, acetone",1.7 mm
"CS(=O)(=O)Oc1ccc(S(C)(=O)=O)cc1 [p-CH3SO2(C6H4)OSO2CH3, p-methylsulfonylphenyl methanesulfonate]",zone of inhibition at 100 µg/disc,Aspergillus niger; [4],0 mm
same,zone of inhibition at 100 µg/disc,Aspergillus flavus; [5],0 mm
"CCC(=O)OCSSC [CH3CH2C(O)OCH2SSCH3, 2,3-dithiabutyl propionate]",zone of inhibition at 25 µg/disc,Aspergillus niger; [2],14.8 mm
same,zone of inhibition at 25 µg/disc,Aspergillus flavus; [3],7.6 mm
CSS(=O)(=O)c1ccc(C)cc1 [p-CH3(C6H4)SO2SCH3],Diameter (mm) of clear Zone A. niger,"Aspergillus niger; 25 μg/disk, acetone",1.4 mm
same,Diameter (mm) of clear Zone A. flavus,"Aspergillus flavus; 25 μg/disk, acetone",3.6 mm
"CCC(=O)OCSSCC(=O)OC [CH3OC(O)CH2SSCH2OC(O)C2H5, methyl 3,4-dithia-5-propionoxypentanoate]",zone of inhibition at 0.25 µg/disc,"Aspergillus niger; Aspergillus niger, 0.25 μg/disk, Appl'n Solvent Acetone",3 mm
same,zone of inhibition at 0.25 µg/disc,"Aspergillus niger; Aspergillus niger, 0.25 μg/disk, Appl'n Solvent DMSO",11.7 mm
same,zone of inhibition at 0.25 µg/disc,"Aspergillus flavus; Aspergillus flavus, 0.25 μg/disk, Appl'n Solvent Acetone",2.3 mm
same,zone of inhibition at 0.25 µg/disc,"Aspergillus flavus; Aspergillus flavus, 0.25 μg/disk, Appl'n Solvent DMSO",7.9 mm
O=S(=O)(Sc1ccccc1)c1ccccc1 [(C6H5)SO2S(C6H5)],Diameter (mm) of clear Zone A. niger,"Aspergillus niger; 25 μg/disk, acetone",3.9 mm
same,Diameter (mm) of clear Zone A. flavus,"Aspergillus flavus; 25 μg/disk, acetone",3.8 mm
Methyl methanethiosulfonate [CH3SO2SCH3],Antifungal activity,[1],effective against only one of the test fungi
same,Diameter (mm) of clear Zone A. niger,"Aspergillus niger; 100 μg/disk, acetone",3.3 mm
same,Diameter (mm) of clear Zone A. flavus,"Aspergillus flavus; 100 μg/disk, acetone",0 mm
"CS(=O)(=O)Sc1ccc([N+](=O)[O-])cc1 [p-CH3SO2S(C6H4)NO2, p-Nitrophenyl Methanethiosulfonate]",Diameter (mm) of clear Zone A. niger,"Aspergillus niger; 25 μg/disk, acetone",1.9 mm
same,Diameter (mm) of clear Zone A. flavus,"Aspergillus flavus; 25 μg/disk, acetone",1.2 mm
"COC(=O)c1ccccc1SSC [o-CH3OC(O)(C6H4)SSCH3, methyl-o(methyldithio)benzoate]",Diameter (mm) of clear Zone A. niger,"Aspergillus niger; 25 μg/disk, acetone",2.8 mm
same,Diameter (mm) of clear Zone A. flavus,"Aspergillus flavus; 25 μg/disk, acetone",4.3 mm
"1-p-toluenesulfonyl-4-propionoxy-2,3-dithiabutane [C2H5OC(O)CH2SSCH2SO2(C6H4)—p-CH3]",Diameter (mm) of clear Zone A. niger,Aspergillus niger; [6],8.5 mm
same,Diameter (mm) of clear Zone A. flavus,Aspergillus flavus; [6],5.2 mm
o-Carbomethoxyphenyl Methanethiosulfonate [o-CH3SO2S(C6H4)CO2CH3],Diameter (mm) of clear Zone A. niger,"Aspergillus niger; 100 μg/disk, acetone",0 mm
same,Diameter (mm) of clear Zone A. flavus,"Aspergillus flavus; 100 μg/disk, acetone",0 mm
